Measurements reported in ChEMBL document CHEMBL1201862, “PubChem BioAssay data set” (2004).
Active and inactive are the calls of the source.

Tests used:
[1] = target: G-protein coupled receptor 183 (Homo sapiens, UniProt P32249); test: SAR confirmation of small molecule antagonists of the EBI2 receptor via a luminescent beta-arrestin assa.; assay type: functional
Prothrombin [2] = target: Prothrombin (Homo sapiens, UniProt P00734); test: Thrombin 1536 HTS Dose Response Confirmation. [Related pubchem assays: 1046 (Thrombin 1536 HTS; hits were confirmed in this assay)]; assay type: functional
[3] = target: Peroxisome proliferator-activated receptor gamma/Nuclear receptor corepressor 2 (Homo sapiens, UniProt P37231+Q9Y618); test: Counterscreen for NR2E3 inverse agonists: TR-FRET-based biochemical high throughput dose response assay to identify inverse agonists of the interaction between peroxisome proliferator-activated receptor gamma (PPARg) and nuclear receptor co-repressor 2 (NCOR2).; assay type: functional
Prothrombin [4] = target: Prothrombin (Bos taurus, UniProt P00735); test: thrombin protease inhibitors – biochemical, fluorescence polarization, uHTS hits, dose response (AID 602369); assay type: functional
[5] = target: 26S proteasome non-ATPase regulatory subunit 14 (Homo sapiens, UniProt O00487); test: inhibition of proteasome subunit RPN11 – biochemical, fluorescence polarization, uHTS hits, confirmation (AID 602368); assay type: functional
[6] = target: 72 kDa type IV collagenase (Homo sapiens, UniProt P08253); test: Dose Response validation of uHTS RPN11 inhibitor hits using a MMP-2 Fluorescence assay.; assay type: functional
[7] = target: Eukaryotic translation initiation factor 4E (Mus musculus, UniProt P63073); test: blockers of eIF4G binding by eIF4E – biochemical, TR-FRET, dose response (AID 855); assay type: functional;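 further: potency for disrupting eIF4E binding to eIF4GI seen as loss of FRET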
[8] = target: Photoreceptor-specific nuclear receptor (Homo sapiens, UniProt Q9Y5X4); test: ligands suppressing NR2E3 nuclear receptor activity – biochemical, TR-FRET, dose response (AID 463256); assay type: functional
[9] = target: Mitogen-activated protein kinase 10 (Homo sapiens, UniProt P53779); test: Dose response biochemical screening assay for inhibitors of c-Jun N-Terminal Kinase 3 (JNK3). [Related pubchem assays: 746 ]
SUMO-activating enzyme = SUMO-activating enzyme (Homo sapiens, UniProt Q9UBT2); test: blockers of UBC9-mediated SUMO conjugation – biochemical, AlphaScreen, SUMOylation inhibitor project, confirmation (AID 2018); assay type: functional
[10] = IC50 of Artemis nuclease activity blockers – biochemical, fluorescence intensity, dose response (AID 720701); assay type: functional;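 further: Artemis endonuclease enzyme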
Albumin = Albumin (Bos taurus, UniProt P02769); test: Counterscreen for inhibitors of T-cell receptor (TCR)-CD3 interaction: Fluorescence-based biochemical high throughput dose response assay to identify inhibitors of T-cell receptor (TCR)-CD3 interaction using a TAMRA-labeled BSA probe.; assay type: functional
Streptococcus = test: GAS UMAA2166 growth inhibition – luminescence, BacTiterGlo, counter-screen for streptokinase expression inhibitor project, dose response (AID 1915); assay type: functional, organism-based;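 further: potency for reduction of bacterial viability or growth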
[11] = test system: Streptococcus sp. 'group A'; test: Streptococcus pyogenes SK(-)GAS viability under kanamycin – luminescence, BacTiterGlo, confirmation, counter-screen for streptokinase expression inhibitor project, dose response (AID 1900); assay type: functional, organism-based
[12] = potency of ADAM10 substrate cleavage blockers – biochemical, QFRET, dose response (AID 743254);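 further: ADAM10 enzyme with the DM2 quenched FRET peptide as substrate; EDANS fluorescence gain as the protease cuts the substrate; inhibitor potency against ADAM10 proteolytic activity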
[13] = target: Disintegrin and metalloproteinase domain-containing protein 17 (Homo sapiens, UniProt P78536); test: inhibition of ADAM17 substrate cleavage – biochemical, quenched FRET substrate, counter-screen for ADAM10 exosite inhibitor project, dose response (AID 743253)
[14] = NIH3T3 cell viability loss – ATP luminescence, mouse fibroblasts, counter-screen, dose response (AID 2010); assay type: functional, cell-based;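 further: cells exposed to compound for about 90 hours before reading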
[15] = Trypanosoma cruzi growth suppression in host cells – NIH3T3 host cells, beta-gal luminescence, confirmation (AID 2044); assay type: functional, cell-based;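 further: intracellular parasites grown in NIH/3T3 mouse fibroblasts as host cells; luminescent beta-galactosidase reporter signal from transgenic T. cruzi replicating inside host cells; inhibitors lower the luminescence signal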
[16] = target: T1, Glutathione-S-transferase (Schistosoma japonicum, UniProt Q26513); test: GST-antibody interaction or FRET quenching – biochemical, TR-FRET, artefact control for Vif-APOBEC3G degradation inhibitor project, dose response (AID 1117362); assay type: functional
T1 sequence (Q26513 whole entry): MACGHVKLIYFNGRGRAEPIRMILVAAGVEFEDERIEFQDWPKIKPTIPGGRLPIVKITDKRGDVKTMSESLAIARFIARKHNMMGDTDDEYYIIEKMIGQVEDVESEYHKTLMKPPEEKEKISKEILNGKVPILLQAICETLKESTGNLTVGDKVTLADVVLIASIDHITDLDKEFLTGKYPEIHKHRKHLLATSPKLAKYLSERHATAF

[17] = blockers of HIV-1 ZM109 envelope-driven cell-cell fusion – HeLa effector, CEM target cells, luciferase, cherry-pick, dose response (AID 652058); assay type: functional, cell-based;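 further: luciferase signal from HIV-1 Env mediated cell-cell fusion of effector and target cells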
[18] = off-target signal loss in HeLa-CEM21 co-culture – HeLa F-luc CTL cells, cherry-picked, counter-screen for HIV-1 Env fusion inhibitor project, dose response (AID 652040); assay type: functional, cell-based;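 further: potency for signal decrease marking cytotoxic or nonspecific inhibition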
[19] = HIV-1 AD8 envelope cell-cell fusion blockers – cherry-pick, dose response (AID 652062); assay type: functional, cell-based;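 further: luciferase signal from cell-cell fusion driven by HIV-1 clade B AD8 Env; potency is for inhibitors of fusion seen as a drop in luminescence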
[20] = viability loss in CEM21 cells – cell-based, CellTiter-Glo luminescence, cherry-picked, cytotoxicity control for viral fusion inhibitor project, dose response (AID 652042); assay type: functional;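 further: potency for signal decrease meaning cytotoxicity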
[21] = blockers of HIV-1 envelope-mediated cell-cell fusion – cherry-pick, dose response (AID 652057); assay type: functional, cell-based

Sequence of Disintegrin and metalloproteinase domain-containing protein 17 (P78536 whole entry, the tested form may be a part): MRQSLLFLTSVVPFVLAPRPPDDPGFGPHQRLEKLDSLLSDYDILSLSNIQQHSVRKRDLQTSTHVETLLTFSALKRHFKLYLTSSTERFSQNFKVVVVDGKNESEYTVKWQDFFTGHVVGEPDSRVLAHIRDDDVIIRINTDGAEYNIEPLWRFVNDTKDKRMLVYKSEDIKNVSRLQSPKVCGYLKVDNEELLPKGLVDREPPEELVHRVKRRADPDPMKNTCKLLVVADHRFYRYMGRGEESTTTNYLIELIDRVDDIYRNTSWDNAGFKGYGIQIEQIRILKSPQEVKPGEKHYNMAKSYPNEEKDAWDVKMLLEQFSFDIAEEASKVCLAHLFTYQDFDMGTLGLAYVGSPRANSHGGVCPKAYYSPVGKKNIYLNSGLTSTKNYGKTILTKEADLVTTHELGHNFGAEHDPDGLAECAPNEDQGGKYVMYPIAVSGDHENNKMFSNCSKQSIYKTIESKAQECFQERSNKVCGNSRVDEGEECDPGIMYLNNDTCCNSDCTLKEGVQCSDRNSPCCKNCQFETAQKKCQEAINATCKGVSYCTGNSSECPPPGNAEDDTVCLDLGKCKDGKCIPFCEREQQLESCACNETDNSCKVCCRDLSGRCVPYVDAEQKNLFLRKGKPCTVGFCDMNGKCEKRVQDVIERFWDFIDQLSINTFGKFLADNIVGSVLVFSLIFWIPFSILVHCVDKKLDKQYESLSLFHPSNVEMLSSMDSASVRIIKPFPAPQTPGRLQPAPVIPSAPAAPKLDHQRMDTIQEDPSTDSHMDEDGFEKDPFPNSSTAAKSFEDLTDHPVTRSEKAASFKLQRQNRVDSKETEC
Sequence of Mitogen-activated protein kinase 10 (P53779 whole entry): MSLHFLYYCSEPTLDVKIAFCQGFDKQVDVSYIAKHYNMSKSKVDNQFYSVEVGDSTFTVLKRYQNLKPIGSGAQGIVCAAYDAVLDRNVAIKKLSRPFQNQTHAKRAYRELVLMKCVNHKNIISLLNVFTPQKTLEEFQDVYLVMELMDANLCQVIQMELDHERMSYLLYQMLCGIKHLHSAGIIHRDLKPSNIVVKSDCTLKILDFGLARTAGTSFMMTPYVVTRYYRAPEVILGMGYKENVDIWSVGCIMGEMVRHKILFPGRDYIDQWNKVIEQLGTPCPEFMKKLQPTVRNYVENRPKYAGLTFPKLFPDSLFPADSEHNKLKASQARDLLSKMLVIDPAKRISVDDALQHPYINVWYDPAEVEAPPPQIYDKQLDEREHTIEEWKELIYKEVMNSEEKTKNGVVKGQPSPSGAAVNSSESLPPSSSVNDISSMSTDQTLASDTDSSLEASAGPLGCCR
Sequence of Peroxisome proliferator-activated receptor gamma/Nuclear receptor corepressor 2 (P37231 whole entry): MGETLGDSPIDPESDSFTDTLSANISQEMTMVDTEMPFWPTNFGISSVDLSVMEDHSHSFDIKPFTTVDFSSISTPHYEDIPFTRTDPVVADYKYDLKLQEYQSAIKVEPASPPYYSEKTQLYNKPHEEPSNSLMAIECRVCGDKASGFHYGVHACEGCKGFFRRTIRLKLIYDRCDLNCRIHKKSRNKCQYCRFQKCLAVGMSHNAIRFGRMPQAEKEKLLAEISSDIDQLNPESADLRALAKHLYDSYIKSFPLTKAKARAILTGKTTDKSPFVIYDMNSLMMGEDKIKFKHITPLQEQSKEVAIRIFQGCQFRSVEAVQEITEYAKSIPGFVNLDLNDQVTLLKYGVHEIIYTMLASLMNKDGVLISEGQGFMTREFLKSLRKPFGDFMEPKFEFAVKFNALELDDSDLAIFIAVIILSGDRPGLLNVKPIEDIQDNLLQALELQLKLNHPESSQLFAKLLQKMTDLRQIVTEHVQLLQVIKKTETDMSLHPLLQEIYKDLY
Sequence of Peroxisome proliferator-activated receptor gamma/Nuclear receptor corepressor 2 (Q9Y618 whole entry): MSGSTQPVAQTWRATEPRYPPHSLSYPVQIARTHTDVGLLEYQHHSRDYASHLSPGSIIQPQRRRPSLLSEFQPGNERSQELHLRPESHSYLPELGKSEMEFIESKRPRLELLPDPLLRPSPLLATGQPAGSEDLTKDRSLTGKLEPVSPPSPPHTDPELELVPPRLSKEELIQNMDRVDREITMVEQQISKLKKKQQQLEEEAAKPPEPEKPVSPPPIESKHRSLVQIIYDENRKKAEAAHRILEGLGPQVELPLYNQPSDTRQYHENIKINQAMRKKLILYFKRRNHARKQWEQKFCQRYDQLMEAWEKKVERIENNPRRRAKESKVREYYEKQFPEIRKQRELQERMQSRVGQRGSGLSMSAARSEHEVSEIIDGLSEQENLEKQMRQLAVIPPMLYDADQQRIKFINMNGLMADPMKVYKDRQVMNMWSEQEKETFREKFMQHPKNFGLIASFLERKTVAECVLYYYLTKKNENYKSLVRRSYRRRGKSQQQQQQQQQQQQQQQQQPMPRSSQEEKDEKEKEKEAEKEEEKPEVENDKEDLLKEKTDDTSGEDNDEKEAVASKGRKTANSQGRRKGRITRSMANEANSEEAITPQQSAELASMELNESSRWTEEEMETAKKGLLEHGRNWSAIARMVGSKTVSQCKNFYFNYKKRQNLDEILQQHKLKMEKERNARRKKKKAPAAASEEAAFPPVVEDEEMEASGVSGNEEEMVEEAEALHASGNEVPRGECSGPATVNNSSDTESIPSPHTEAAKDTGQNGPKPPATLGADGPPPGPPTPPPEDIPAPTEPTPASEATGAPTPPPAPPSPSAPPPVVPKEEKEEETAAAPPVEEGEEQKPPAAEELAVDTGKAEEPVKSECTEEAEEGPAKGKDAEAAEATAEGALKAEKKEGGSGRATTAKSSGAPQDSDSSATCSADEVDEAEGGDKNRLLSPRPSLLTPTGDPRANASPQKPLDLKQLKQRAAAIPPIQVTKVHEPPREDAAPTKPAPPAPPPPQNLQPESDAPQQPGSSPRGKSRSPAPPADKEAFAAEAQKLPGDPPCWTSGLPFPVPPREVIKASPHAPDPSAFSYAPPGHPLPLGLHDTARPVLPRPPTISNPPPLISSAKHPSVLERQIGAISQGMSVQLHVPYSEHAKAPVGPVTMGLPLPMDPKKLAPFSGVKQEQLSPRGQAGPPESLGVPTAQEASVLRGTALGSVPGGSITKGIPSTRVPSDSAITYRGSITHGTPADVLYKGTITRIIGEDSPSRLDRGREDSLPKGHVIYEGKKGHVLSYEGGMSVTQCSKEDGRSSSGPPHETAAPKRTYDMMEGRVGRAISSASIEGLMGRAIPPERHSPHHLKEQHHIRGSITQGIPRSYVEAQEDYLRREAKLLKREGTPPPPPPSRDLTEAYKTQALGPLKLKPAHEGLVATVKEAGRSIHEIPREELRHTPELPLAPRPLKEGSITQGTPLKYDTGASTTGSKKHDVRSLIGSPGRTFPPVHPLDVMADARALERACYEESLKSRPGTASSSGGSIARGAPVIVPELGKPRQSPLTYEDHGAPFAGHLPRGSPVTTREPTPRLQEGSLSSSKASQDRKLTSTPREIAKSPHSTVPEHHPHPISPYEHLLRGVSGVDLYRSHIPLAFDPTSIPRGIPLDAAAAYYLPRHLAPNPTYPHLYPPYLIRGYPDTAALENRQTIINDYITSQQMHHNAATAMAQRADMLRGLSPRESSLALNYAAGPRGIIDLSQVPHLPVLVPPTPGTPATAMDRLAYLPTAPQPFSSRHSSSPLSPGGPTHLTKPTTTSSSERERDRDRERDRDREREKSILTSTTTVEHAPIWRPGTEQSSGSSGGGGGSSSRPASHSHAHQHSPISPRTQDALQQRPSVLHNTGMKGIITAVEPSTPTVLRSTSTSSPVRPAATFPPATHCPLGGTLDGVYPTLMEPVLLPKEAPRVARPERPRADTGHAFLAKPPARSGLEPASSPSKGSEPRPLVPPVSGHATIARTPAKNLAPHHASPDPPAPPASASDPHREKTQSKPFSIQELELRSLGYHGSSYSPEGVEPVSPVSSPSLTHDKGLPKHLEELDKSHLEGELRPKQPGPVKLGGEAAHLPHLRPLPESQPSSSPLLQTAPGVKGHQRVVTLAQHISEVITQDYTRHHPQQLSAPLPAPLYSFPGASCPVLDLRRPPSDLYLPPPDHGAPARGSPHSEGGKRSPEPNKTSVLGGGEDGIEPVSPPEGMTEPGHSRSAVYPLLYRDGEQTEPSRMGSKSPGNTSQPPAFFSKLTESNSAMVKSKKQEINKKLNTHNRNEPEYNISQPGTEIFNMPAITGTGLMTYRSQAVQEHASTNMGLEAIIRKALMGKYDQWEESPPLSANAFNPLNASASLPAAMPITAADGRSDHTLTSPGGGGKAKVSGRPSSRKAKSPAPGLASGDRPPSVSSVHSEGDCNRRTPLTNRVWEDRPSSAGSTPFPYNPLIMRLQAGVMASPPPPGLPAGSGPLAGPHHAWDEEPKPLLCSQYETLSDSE
Sequence of 26S proteasome non-ATPase regulatory subunit 14 (O00487 whole entry): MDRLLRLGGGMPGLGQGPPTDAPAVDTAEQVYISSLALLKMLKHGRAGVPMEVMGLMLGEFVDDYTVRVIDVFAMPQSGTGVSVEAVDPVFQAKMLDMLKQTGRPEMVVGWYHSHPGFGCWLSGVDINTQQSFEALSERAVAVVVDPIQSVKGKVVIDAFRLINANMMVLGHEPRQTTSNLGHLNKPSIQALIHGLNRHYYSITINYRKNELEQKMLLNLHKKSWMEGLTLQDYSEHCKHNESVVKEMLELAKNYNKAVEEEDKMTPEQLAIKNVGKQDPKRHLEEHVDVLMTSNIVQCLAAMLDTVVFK
Sequence of Photoreceptor-specific nuclear receptor (Q9Y5X4 whole entry): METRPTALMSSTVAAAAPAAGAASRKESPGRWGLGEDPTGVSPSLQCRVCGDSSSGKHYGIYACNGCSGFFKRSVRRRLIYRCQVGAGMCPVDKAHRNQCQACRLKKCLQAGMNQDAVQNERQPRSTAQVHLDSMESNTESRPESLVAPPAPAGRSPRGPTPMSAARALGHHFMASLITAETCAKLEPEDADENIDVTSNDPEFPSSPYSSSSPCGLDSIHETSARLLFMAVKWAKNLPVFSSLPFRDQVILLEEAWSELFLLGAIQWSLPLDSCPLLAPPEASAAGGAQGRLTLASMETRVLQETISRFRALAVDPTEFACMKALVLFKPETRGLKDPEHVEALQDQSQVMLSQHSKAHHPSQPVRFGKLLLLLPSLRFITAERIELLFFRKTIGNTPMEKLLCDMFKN

Q: Which IC50 [1] does the source give for O=C(CCCc1ccc(Br)cc1)N1CCN(Cc2ccc(Cl)cc2)CC1 here?
A: The IC50 was > 1 µM (inactive).

Q: For Nc1nc(-c2ccco2)nn1C(=O)c1ccccc1Cl, which IC50 (Prothrombin [2]) is on record?
A: Its IC50 is 14 µM (active).

Q: What does the source list for C=CCn1c(SCC(=O)Nc2ccc(-c3nc4ccc(C)cc4s3)cc2)nnc1-c1ccccc1?
A: IC50 [3]: 0.737 µM (active); IC50 (Prothrombin [4]): 51.4 µM (active); IC50 [5]: 23.7 µM (active); IC50 [6]: > 100 µM (inactive); IC50 [7]: > 64 µM (inactive); IC50 [8]: 0.774 µM (active)

Q: For COCc1cc(C)nc(SCC(=O)Nc2cc3c(cc2C#N)OCO3)c1C#N, which IC50 [9] is on record?
A: The IC50 was > 93.1 µM (not active).

Q: Which IC50 [9] does the source give for COC(=O)c1sccc1NC(=O)c1ccc(OC)cc1 here?
A: The IC50 was 26.8 µM (not active).

Q: Which IC50 (SUMO-activating enzyme) does the source give for O=C(Nc1cccc2nsnc12)c1ccc(-c2cccc(Cl)c2)o1 here?
A: Its IC50 is 18.3 µM (active).

Q: What about the IC50 [10] of the same compound?
A: The IC50 was > 20 µM (inactive).

Q: Which results are given for O=C(CNC(=O)c1ccccc1Br)N/N=C\c1cc([N+](=O)[O-])cc(Br)c1O?
A: IC50 (Albumin): > 94.1 µM (inactive); EC50 (Streptococcus): 8.46 µM (active); EC50 [11]: 8.28 µM (active)

Q: With COC(=O)[C@]12C[C@H](CC(=O)NCCC(C)C)C(=O)N(Cc3cccc4ccccc34)C1=C[C@H](C(C)C)O[C@@H]2C1CC1 as the compound, how does the IC50 [12] read?
A: Its IC50 is > 69.5 µM (inactive).

Q: And the IC50 [13]?
A: The IC50 was > 69.5 µM (inactive).

Q: For CSc1cccc(NC(=O)/C=C/c2ccc(Cl)cc2)c1, which IC50 [12] is on record?
A: Its IC50 is > 69.5 µM (inactive).

Q: And the IC50 [13]?
A: The IC50 was > 69.5 µM (inactive).

Q: Which results are given for COc1ccc(CC(=O)NCC2CCCN(Cc3ccc(SC)cc3)C2)cc1 (centres undefined)?
A: EC50 [14]: > 60 µM (not active); EC50 (cells): 0.034 µM (active); EC50 [15]: < 0.1 µM (active)

Q: Which results are given for CCCOc1ccc(N)cc1N?
A: IC50 [16]: 15.8 µM (active); IC50 [10]: > 20 µM (inactive)

Q: What does the source list for CSc1ccc(CN2CCC2(C)C(=O)Nc2cccc(NS(C)(=O)=O)c2)cc1 (centres undefined)?
A: AC50 [17]: 10.3 µM (active); AC50 [18]: 11.4 µM (active); AC50 [19]: 21.7 µM (active); AC50 [20]: 58.6 µM (active); AC50 [21]: 9.03 µM (active)
